Columns and labels:
[1] = target: T1, Ba/F3 ERBB2 A775_G776insYVMA (Homo sapiens, UniProt P04626, DUP772-775, cells depend on it); assay: Cell viability assay (CellTiter Glo); assay type: cell-based, mouse; settings: 72 hours; 3000 cells per well, 96-well plates (Tables B3-B4); read-out: Cell viability IC50, nM, Ba/F3 ERBB2 A775_G776insYVMA
T1 construct: Ba/F3 cell lines were engineered to express human ERBB2 or EGFR kinases, rendering the cells IL-3 independent
Description: (§1) Cells were treated with compounds, and cell viability was measured as a metric of kinase inhibition.
(§2) The Ba/F3 cell line is IL-3-dependent mouse cell line derived from the C3H mouse strain. Ba/F3 cell lines were engineered to express human ERBB2 or EGFR kinases, rendering the cells IL-3 independent. The lines were generated via retroviral transduction utilizing a Moloney murine leukemia virus (MMLV) promoter, and constructs are stably integrated into the cell genome.
(§3) Similarly, Ba/F3 cell lines engineered to express EGFR, ERBB2, or ERBB2 mutants were grown, harvested, counted and seeded at 3000 cells per well in 96-well plates for the data sets shown in Tables B3-B4, and seeded at 300 cells per well in 384-well plates for the data set shown in Table B5. A subset of wells contained media only (low control, “LC”).
(§4) Table B2 provides the growth media and number of cells seeded per well for the each cell line.
(§5) Compounds were dissolved in DMSO and serially diluted. Serially-diluted compound or a DMSO only control (high control, “HC”) was added to the plated cells in each well. […] The final proportion of DMSO never exceeded 0.1%.
(§6) Plates were placed in a 37° C., 5% CO2 incubator for 72 hours. Plates were then removed from the incubator and equilibrated for 15 minutes at room temperature. 40 IA of CellTiter Glo reagent (Promega) was added to measure the relative level of metabolically active cells by quantifying intracellular ATP concentrations. Plates were incubated for 30 minutes at room temperature, and luminescence was measured. Percent viability was normalized to a vehicle control only using the following formula: % viability=100×(LumSample−LumLC) (LumHC−LumLC). Graphical curves were fitted using a nonlinear regression model with a sigmoidal dose response.

Ba/F3 ERBB2 wt = target: T2, Ba/F3 ERBB2 wt (Homo sapiens, UniProt P04626); assay: Cell viability assay (CellTiter Glo); assay type: cell-based, mouse; settings: 72 hours; 3000 cells per well, 96-well plates; read-out: Cell viability IC50, nM, Ba/F3 ERBB2 wt
T2 construct: Ba/F3 cell lines were engineered to express human ERBB2 or EGFR kinases, rendering the cells IL-3 independent
Description: as §1, §2, §3, §4, §5, §6

Ba/F3 ERBB2-G776VC = target: T3, Ba/F3 ERBB2-G776VC (Homo sapiens, UniProt P04626, DELINS776-776VC, cells depend on it); assay: Cell viability assay (CellTiter Glo); assay type: cell-based, mouse; settings: 72 hours; 3000 cells per well, 96-well plates; read-out: Cell viability IC50, nM, Ba/F3 ERBB2-G776VC
T3 construct: Ba/F3 cell lines were engineered to express human ERBB2 or EGFR kinases, rendering the cells IL-3 independent
Description: as §1, §2, §3, §4, §5, §6

Ba/F3 ERBB2-L755S = target: T4, Ba/F3 ERBB2-L755S (Homo sapiens, UniProt P04626, L755S, cells depend on it); assay: Cell viability assay (CellTiter Glo); assay type: cell-based, mouse; settings: 72 hours; 3000 cells per well, 96-well plates; read-out: Cell viability IC50, nM, Ba/F3 ERBB2-L755S
T4 construct: Ba/F3 cell lines were engineered to express human ERBB2 or EGFR kinases, rendering the cells IL-3 independent
Description: as §1, §2, §3, §4, §5, §6

Ba/F3 ERBB2-L869R = target: T5, Ba/F3 ERBB2-L869R (Homo sapiens, UniProt P04626, L869R, cells depend on it); assay: Cell viability assay (CellTiter Glo); assay type: cell-based, mouse; settings: 72 hours; 3000 cells per well, 96-well plates; read-out: Cell viability IC50, nM, Ba/F3 ERBB2-L869R
T5 construct: Ba/F3 cell lines were engineered to express human ERBB2 or EGFR kinases, rendering the cells IL-3 independent
Description: as §1, §2, §3, §4, §5, §6

Ba/F3 ERBB2-T798M = target: T6, Ba/F3 ERBB2-T798M (Homo sapiens, UniProt P04626, T798M, cells depend on it); assay: Cell viability assay (CellTiter Glo); assay type: cell-based, mouse; settings: 72 hours; 3000 cells per well, 96-well plates; read-out: Cell viability IC50, nM, Ba/F3 ERBB2-T798M
T6 construct: Ba/F3 cell lines were engineered to express human ERBB2 or EGFR kinases, rendering the cells IL-3 independent
Description: as §1, §2, §3, §4, §5, §6

Ba/F3 ERBB2-V777L = target: T7, Ba/F3 ERBB2-V777L (Homo sapiens, UniProt P04626, V777L, cells depend on it); assay: Cell viability assay (CellTiter Glo); assay type: cell-based, mouse; settings: 72 hours; 3000 cells per well, 96-well plates; read-out: Cell viability IC50, nM, Ba/F3 ERBB2-V777L
T7 construct: Ba/F3 cell lines were engineered to express human ERBB2 or EGFR kinases, rendering the cells IL-3 independent
T7 sequence (P04626 whole entry V777L): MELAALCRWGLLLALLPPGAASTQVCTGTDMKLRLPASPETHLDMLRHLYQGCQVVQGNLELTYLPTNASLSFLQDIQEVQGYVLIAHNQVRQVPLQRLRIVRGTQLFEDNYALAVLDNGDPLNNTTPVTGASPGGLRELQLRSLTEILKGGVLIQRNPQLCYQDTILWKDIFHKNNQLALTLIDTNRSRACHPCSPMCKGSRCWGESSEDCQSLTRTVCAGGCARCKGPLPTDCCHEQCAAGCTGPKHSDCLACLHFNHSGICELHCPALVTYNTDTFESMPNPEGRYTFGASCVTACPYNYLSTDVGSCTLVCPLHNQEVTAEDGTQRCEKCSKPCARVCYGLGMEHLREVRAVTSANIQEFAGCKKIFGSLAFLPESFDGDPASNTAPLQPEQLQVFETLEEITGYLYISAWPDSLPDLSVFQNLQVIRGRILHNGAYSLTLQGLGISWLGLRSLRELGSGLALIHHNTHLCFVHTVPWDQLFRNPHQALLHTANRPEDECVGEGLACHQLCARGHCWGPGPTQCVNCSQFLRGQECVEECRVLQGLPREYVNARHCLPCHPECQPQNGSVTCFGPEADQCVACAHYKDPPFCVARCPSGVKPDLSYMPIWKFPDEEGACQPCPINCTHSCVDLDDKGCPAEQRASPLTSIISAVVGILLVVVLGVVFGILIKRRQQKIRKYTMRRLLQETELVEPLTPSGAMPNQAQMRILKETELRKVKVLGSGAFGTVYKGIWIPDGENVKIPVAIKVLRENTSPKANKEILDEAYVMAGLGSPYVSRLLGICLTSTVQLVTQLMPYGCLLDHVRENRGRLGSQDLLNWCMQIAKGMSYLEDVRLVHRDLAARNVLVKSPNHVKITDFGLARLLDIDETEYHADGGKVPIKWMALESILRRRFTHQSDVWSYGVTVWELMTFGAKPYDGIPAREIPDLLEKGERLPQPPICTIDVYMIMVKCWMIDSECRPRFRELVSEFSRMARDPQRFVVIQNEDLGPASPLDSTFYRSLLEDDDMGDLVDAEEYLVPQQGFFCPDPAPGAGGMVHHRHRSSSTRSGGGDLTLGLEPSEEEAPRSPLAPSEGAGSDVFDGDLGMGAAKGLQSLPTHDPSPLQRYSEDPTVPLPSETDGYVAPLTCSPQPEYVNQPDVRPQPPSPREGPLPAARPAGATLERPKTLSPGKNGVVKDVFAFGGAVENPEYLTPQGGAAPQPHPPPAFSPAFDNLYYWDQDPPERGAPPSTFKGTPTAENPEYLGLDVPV
Description: as §1, §2, §3, §4, §5, §6

[2] = target: T8, Ba/F3 ERBB2-V777_G778insGC (Homo sapiens, UniProt P04626, INS778CG, cells depend on it); assay: Cell viability assay (CellTiter Glo); assay type: cell-based, mouse; settings: 72 hours; 3000 cells per well, 96-well plates; read-out: Cell viability IC50, nM, Ba/F3 ERBB2-V777_G778insGC
T8 construct: Ba/F3 cell lines were engineered to express human ERBB2 or EGFR kinases, rendering the cells IL-3 independent
T8 sequence (P04626 with tags, fused parts or gaps INS778CG): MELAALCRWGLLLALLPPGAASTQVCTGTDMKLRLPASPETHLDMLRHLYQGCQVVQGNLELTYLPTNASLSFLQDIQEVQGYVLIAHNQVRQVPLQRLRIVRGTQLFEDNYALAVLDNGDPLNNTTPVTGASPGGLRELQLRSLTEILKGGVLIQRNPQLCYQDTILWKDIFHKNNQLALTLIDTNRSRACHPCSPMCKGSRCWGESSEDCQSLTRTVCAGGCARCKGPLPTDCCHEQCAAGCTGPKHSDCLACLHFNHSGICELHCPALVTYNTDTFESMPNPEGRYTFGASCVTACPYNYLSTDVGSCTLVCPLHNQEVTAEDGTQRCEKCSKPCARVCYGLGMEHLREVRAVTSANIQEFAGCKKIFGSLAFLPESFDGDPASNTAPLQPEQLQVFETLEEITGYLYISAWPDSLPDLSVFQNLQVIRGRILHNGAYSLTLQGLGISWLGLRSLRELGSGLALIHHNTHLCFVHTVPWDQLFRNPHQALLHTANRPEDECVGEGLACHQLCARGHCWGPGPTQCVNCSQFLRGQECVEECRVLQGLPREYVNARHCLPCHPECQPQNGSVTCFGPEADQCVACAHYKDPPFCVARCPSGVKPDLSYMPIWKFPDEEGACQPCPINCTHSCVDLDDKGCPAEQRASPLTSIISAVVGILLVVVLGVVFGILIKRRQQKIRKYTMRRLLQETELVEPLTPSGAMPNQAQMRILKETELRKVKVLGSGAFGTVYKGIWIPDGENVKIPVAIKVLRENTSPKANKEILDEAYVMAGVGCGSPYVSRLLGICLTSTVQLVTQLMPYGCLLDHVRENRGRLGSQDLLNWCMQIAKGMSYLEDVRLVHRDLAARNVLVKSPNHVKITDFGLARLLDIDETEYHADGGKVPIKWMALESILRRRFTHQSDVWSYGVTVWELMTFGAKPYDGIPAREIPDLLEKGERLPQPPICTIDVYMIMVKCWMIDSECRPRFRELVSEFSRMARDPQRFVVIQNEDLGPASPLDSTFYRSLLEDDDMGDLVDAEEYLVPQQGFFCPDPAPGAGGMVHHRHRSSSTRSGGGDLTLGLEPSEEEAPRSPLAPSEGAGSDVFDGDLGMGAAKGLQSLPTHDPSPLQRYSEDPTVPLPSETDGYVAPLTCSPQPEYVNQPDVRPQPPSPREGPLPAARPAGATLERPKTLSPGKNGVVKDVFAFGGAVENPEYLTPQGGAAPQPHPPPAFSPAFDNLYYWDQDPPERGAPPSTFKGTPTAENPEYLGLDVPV
Description: as §1, §2, §3, §4, §5, §6

[3] = target: T9, Ba/F3 ERBB2-P780_Y781insGSP (Homo sapiens, UniProt P04626, DUP778-780, cells depend on it); assay: Cell viability assay (CellTiter Glo); assay type: cell-based, mouse; settings: 72 hours; 3000 cells per well, 96-well plates; read-out: Cell viability IC50, nM, Ba/F3 ERBB2-P780_Y781insGSP
T9 construct: Ba/F3 cell lines were engineered to express human ERBB2 or EGFR kinases, rendering the cells IL-3 independent
T9 sequence (P04626 with tags, fused parts or gaps DUP778-780): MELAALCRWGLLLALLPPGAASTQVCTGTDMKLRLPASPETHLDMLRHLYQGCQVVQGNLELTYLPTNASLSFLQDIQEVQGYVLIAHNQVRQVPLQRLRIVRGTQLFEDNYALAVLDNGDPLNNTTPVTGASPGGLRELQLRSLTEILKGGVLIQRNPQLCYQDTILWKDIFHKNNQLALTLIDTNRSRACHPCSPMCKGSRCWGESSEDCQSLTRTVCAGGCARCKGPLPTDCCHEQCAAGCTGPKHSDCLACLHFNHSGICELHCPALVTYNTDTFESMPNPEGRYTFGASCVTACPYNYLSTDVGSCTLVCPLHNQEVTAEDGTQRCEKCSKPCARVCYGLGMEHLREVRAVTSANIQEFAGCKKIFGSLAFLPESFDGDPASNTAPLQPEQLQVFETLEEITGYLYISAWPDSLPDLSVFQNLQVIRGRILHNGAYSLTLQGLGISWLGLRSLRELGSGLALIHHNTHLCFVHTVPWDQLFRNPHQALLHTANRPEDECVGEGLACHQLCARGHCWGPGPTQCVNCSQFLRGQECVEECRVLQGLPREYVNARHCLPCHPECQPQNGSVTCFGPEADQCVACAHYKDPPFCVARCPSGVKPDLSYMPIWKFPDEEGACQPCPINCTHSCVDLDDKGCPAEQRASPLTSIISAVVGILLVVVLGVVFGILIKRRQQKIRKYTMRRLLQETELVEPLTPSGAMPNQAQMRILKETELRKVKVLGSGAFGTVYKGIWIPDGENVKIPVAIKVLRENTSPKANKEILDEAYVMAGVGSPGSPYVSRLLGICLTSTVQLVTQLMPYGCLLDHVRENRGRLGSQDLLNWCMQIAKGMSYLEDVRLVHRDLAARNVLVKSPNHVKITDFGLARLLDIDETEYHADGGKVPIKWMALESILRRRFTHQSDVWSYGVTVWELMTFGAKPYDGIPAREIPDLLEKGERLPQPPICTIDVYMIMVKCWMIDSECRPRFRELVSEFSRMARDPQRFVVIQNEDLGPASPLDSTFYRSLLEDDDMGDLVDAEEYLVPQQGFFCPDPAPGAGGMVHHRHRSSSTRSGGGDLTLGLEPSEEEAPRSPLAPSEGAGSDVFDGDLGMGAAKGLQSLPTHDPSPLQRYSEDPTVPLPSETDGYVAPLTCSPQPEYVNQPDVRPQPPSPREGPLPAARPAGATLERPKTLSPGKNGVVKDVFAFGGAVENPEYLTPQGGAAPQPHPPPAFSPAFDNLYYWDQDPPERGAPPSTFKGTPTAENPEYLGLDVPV
Description: as §1, §2, §3, §4, §5
as §6, with “Percent viability was normalized to a vehicle control only using the following formula: % viability=100×(LumSample−LumLC) (LumHC−LumLC).” left out

A431 cells = assay: Cell viability assay (CellTiter Glo); assay type: cell-based; settings: Homo sapiens, A-431; 72 hours; 1500 cells per well, 384-well; DMEM + 10% FBS
Description: as §1, §2, §3, §4, §5, §6

BT-474 cells = assay: Cell viability assay (CellTiter Glo); assay type: cell-based; settings: Homo sapiens, 72 hours, 2000 cells per well, 384-well, DMEM + 10% FBS
Description: as §1, §2, §3, §4, §5, §6

MDA-MB-175VII cells = assay: Cell viability assay (CellTiter Glo); assay type: cell-based; settings: Homo sapiens, 72 hours, 2000 cells per well, 384-well, RPMI + 10% FBS
Description: as §1, §2, §3, §4, §5, §6

[4] = target: T10, phosphorylated ERBB2 (pERBB2) (Homo sapiens, UniProt P04626); assay: Detection of phosphorylated ERBB2 (pERBB2) by ELISA in BT-474 cells; assay type: cell-based; settings: four hours incubation with compound, OD 450 nm
T10 construct: endogenous in cells; host or cells: BT-474
T10 sequence (P04626 23-1255): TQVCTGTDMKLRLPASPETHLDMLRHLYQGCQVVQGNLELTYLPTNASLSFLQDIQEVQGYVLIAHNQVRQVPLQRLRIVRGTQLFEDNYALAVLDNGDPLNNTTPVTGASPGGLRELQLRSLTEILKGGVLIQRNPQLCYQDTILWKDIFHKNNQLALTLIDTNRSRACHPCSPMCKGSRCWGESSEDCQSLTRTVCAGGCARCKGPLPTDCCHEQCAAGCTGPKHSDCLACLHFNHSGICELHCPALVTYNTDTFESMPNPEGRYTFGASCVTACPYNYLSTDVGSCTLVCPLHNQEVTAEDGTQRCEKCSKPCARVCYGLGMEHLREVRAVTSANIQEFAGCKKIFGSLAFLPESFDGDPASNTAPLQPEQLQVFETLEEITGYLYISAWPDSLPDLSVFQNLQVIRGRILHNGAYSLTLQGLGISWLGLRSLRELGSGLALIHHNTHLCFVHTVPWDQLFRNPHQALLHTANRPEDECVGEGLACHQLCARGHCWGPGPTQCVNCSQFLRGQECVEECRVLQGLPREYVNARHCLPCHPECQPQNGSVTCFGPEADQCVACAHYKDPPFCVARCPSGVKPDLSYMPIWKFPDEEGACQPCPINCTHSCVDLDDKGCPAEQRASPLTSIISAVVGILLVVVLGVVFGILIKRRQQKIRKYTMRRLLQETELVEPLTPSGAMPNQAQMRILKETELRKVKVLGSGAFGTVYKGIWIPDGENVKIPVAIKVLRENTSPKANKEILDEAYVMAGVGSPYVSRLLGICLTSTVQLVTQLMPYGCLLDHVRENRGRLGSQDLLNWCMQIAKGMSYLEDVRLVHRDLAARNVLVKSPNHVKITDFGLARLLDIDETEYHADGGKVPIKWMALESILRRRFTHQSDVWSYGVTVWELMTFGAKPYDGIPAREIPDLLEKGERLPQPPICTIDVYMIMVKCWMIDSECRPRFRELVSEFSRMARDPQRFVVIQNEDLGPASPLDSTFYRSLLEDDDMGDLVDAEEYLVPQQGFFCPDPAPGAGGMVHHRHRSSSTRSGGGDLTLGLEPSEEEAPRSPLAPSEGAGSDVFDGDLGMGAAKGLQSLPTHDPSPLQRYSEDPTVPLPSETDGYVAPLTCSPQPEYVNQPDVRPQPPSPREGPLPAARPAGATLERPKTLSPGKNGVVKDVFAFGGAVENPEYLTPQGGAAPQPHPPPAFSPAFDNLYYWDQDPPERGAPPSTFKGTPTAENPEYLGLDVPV
Description: BT-474 cells were seeded into a 96-well at 2.0*10^4 cells/100 μl/well.
Compounds were dissolved and serially diluted in DMSO. The compounds were then were added, mixed, and incubated for four hours at 37° C., 5% CO2. Compounds were added using four-fold dilutions at final concentrations ranging from 10 μM to 0.01 nM.
Following the four hour incubation with compounds, cell lysates were prepared. Plates were centrifuged for 5 min at 3000 RPM, and supernatant was removed from each well. Cells were washed 3 times by resuspension in 150 μl PBS, followed by centrifugation and removal of the supernatant, as above. […] Cells were incubated with lysis buffer for 1 hour at 4° C., and then stored at −80° C.
Enzyme-linked immunosorbent assays (ELISA) were performed to measure phosphorylated ERBB2 levels. […] The next day, plates were washed with PBS+0.05% Tween20 (PBST). 150 μl of 5% BSA blocking solution was added for 1 hour at room temperature, with shaking. Plates were washed with PBST. Cell lysates were thawed and 100 μl of lysate was added to the ELISA plate. The plates were incubated for 2 hours at room temperature, with shaking. […] Plates were incubated for 1 hour at room temperature, with shaking. Plates were then washed with PBST, and 100 μl TMB substrate solution (R&D Systems, cat #DY999) was added. Plate were incubated in the dark for 20 minutes at room temperature. 50 μl of Stop solution (R&D Systems, cat #DY994) (50 μl) was added to each well and mixed.
Optical density at 450 nm was read on an EnSpire plate reader (Perkin Elmer). The remaining kinase activity by calculated using the following formula: % Relative activity=100×(A450sample−A450LC)/(A450HC−A450LC). The low and high control values (“LC” and “HC”) were generated from lysate from wells without cells or with cells treated with 0.1% DMSO, respectively.

[5] = target: T11, phosphorylated EGFR (pEGFR) (Homo sapiens, UniProt P00533); assay: Detection of phosphorylated EGFR (pEGFR) in EGF-stimulated A431 cells (AlphaLISA); assay type: cell-based; settings: A431 cells (10% FBS), 4 hours with compound, then EGF 30 ng/mL for 10 minutes
T11 construct: endogenous in cells; host or cells: A431
Description: Enzyme-linked immunosorbent assays (ELISA) were performed to measure phosphorylated EGFR levels using A431 cells (10% FBS). A431 (1.0*10^4 cells/40 μl/well) cells were seeded in 384 well. Compounds were dissolved in DMSO, serially diluted in DMSO and then were added, mixed, and incubated for 4 hours at 37° C., 5% CO2. Following the 4-hours incubation, cells were stimulated for 10 minutes with EGF (Invitrogen, cat #PHG0311) at a final concentration of 30 ng/mL in the incubator. The media was aspirated and cells were lysed in 10 μL lysis buffer with protease and phosphatase inhibitors (PerkinElmer, cat #ALSU-PEGFR-A50K). The plates were placed on a shaker for 5 minutes and then incubated for 30 min at 4° C. for complete lysis. The lysate was transferred to an Optiplate (Perkin Elmer, cat #6007290).
Acceptor mix (PerkinElmer, cat #ALSU-PEGFR-A50K) was prepared just before use and 5 μL was dispensed to all the wells, followed by a 1.5-2 h incubation at room temperature in dark. The donor mix (PerkinElmer, cat #ALSU-PEGFR-A50K) was prepared under low light conditions prior to use and […] of donor mix was added to all the wells under subdued lighting or green filters. The plates were placed on a shaker for 5 min, sealed, and incubated overnight at room temperature in dark. Plates were read on the Envision (PerkinElmer) using standard AlphaLISA settings.
The percentage of inhibition on EGFR phosphorylation was calculated following equation: % Inhibition=100×(LumHC−LumSample)/(LumHC−LumLC). The low and high controls (LC/HC) are generated from lysate from wells with cells treated with DMSO or […] Staurosporine (BioAustralis, cat #BIA-S1086), […]. IC50 values were calculated by fitting the Curve using XLfit (v5.3.1.3), equation 201: Y=Bottom+(Top−Bottom)/(1+10^((LogIC50−X)*HillSlope)).

Row | IC50 (A431 cells) [nM] | IC50 (BT-474 cells) [nM] | IC50 (MDA-MB-175VII cells) [nM] | IC50 [4] [nM] | IC50 [5] [nM] | SMILES | GI50 [1] [nM] | GI50 (Ba/F3 ERBB2 wt) [nM] | GI50 (Ba/F3 ERBB2-G776VC) [nM] | GI50 (Ba/F3 ERBB2-L755S) [nM] | GI50 (Ba/F3 ERBB2-L869R) [nM] | GI50 (Ba/F3 ERBB2-T798M) [nM] | GI50 (Ba/F3 ERBB2-V777L) [nM] | GI50 [2] [nM] | GI50 [3] [nM]
1 |  |  |  |  |  | CC#CC(=O)Nc1ccc2ncnc(Nc3ccc(Oc4ccc(C)nc4)c(C)c3)c2c1 [Compound 5, N-[4-([3-methyl-4-[(6-methylpyridin-3-yl)oxy]phenyl]amino)quinazolin-6-yl]but-2-ynamide] | 8.3 | 2.3 | 3.8 | 6 | 2.3 | 44 | 1.1 | 1.3 | 1.1
2 | 3550 | 9.6 | 30.4 | 14.3 |  | CC#CC(=O)Nc1ccc2ncnc(Nc3ccc(Cc4ccn5ncnc5c4)cc3)c2c1 [Compound 14, N-[4-[(4-[[1,2,4]triazolo[1,5-a]pyridin-7-ylmethyl]phenyl)amino]quinazolin-6-yl]but-2-ynamide] | 36 | 5.1 | 13 | 25 | 9.5 | 482 | 1.5 | 4 | 3.8
3 | > 10000 | 16.7 | 562 | 72.9 |  | CC#CC(=O)N(C)c1ccc2ncnc(Nc3ccc(Oc4ccn5ncnc5c4)cc3)c2c1 [Compound 8, N-methyl-N-[4-[(4-[[1,2,4]triazolo[1,5-a]pyridin-7-yloxy]phenyl)amino]quinazolin-6-yl]but-2-ynamide] | 276 | 31 | 117 | 159 | 52 | 1500 | 11 | 34 | 20.4
4 | 4440 | 13.5 | 43.3 | 152 |  | CC#CC(=O)Nc1ccc2ncnc(Nc3ccc(Oc4ccn(C)c(=O)c4)c(C)c3)c2c1 [Compound 3, N-[4-([3-methyl-4-[(1-methyl-2-oxopyridin-4-yl)oxy]phenyl]amino)quinazolin-6-yl]but-2-ynamide] | 8.1 | 18 | 30 |  |  |  |  |  | 7.1
5 | 1080 | 35.5 | 232 | 74.9 |  | CC#CC(=O)Nc1ccc2ncnc(Nc3ccc(Oc4cnc(C)cn4)cc3)c2c1 [Compound 10, N-[4-([4-[(5-methylpyrazin-2-yl)oxy]phenyl]amino)quinazolin-6-yl]but-2-ynamide] | 49 | 13.1 | 81 | 81 | 15 | 220 | 7.3 | 9.3 | 16
6 |  | 2.17 |  | 17 | 70.9 | Cc1cc(Nc2ncnc3cc(OCCO)c(NC(=O)C#CC4CC4)cc23)ccc1Oc1ccn2ncnc2c1 [Compound 168, 3-cyclopropyl-N-[7-(2-hydroxyethoxy)-4-[(3-methyl-4-[[1,2,4]triazolo[1,5-a]pyridin-7-yloxy]phenyl)amino]quinazolin-6-yl]prop-2-ynamide] |  |  |  |  |  |  |  |  | 

Reference: patent US20230265098A1, “ALKYNE QUINAZOLINE DERIVATIVES AS INHIBITORS OF ERBB2” (EnLiven Therapeutics, Inc., priority 2020, published 2023)
